US12605653B2, “Anionic switchable hydrophilicity solvents” (QUEEN'S UNIVERSITY AT KINGSTON, priority 2022, dated 2026)

Assay: Evaluation of the switching behaviour of ASHS systems (carboxylic acid/base/water) under air and 1 bar of CO2
Assay type: physicochemical
Settings: for Behaviour of the system: base NaOH; for Behaviour of the system after CO2 addition: 1 bar CO2; for Behaviour of the system after CO2 addition / pH under 1 bar of CO2 / pH under air: 20° C.; for Phase behaviour upon addition of 1 bar of CO2: base Jeffamine D-230, TEA, DMEA or 3DMAP, base:acid mole ratio 1:1, water:acid mass ratio 15:1 and other ratios
Procedure: Base solutions were prepared by combining the desired base and water (mass for components measured in an analytical scale) into either a 10 or 25 mL graduated cylinder (containing a magnetic stir bar) depending on the final volume of the mixture obtained. The carboxylic acid (mass measured using an analytical balance prior to addition) being studied was added to the base solution, and the mixture was mixed with the help of a magnetic stir plate. The amount of base and water used were selected based on the acid:base:water ratio desired. Experiments were carried out using stoichiometric and substoichiometric amounts of the base relative to the number of mols of acid added. In addition, the quantity of water used was adjusted based on the acid:water mass ratio desired. A typical experiment would contain 1 g of the carboxylic acid; between 0.4 and 1 mol of base per mol of acid; and a water mass varying from 1 to 9.5 g.
During a typical experiment, CO2 would be added for approximately 2 h at atmospheric pressure. At the end of the 2 h, the sparge tube would be removed, and the number and volume of the phases obtained would be recorded. The pH was once again recorded. For mixtures with only 1 phase, the pH of that phase was recorded. While for mixtures with 2 phases, the pH of the aqueous phase was recorded.
In the systems in which the base:acid mole ratio and the water:acid mass ratio were being studied, a slight modification from this method was used. The acid being tested (1 g) was mixed with 1 g of water and the required amount of NaOH (based on the acid:base molar ratio desired) to prepare the mixture. […]
The base solution was then added to the carboxylic acid, and the next steps followed the procedure previously described.

[1] = base 3DMAP, base:acid mole ratio 0.55:1, H2O:acid mass ratio 2.5:1
[2] = base DMEA, base:acid mole ratio 0.60:1, H2O:acid mass ratio 2.5:1
[3] = base Jeffamine D-230 (two moles acid per mole D-230), H2O:acid mass ratio 1:1-9.5:1
[4] = base Jeffamine D-230 (two moles acid per mole D-230), H2O:acid mass ratio 15:1, partial = acid recovered smaller than mass added
[5] = base Jeffamine D-230 (two moles acid per mole D-230), H2O:acid mass ratio 15:1
[6] = base MDEA, base:acid mole ratio 0.65:1, H2O:acid mass ratio 2.5:1
[7] = base TEA, MDEA, DMEA or 3-DMAP, base:acid mol ratio 1:1, H2O:acid mass ratio 12:1-15:1
[8] = base TEA, base:acid mole ratio 0.65:1, H2O:acid mass ratio 2.5:1
[9] = base 3DMAP, base:acid mole ratio 0.60:1, H2O:acid mass ratio 2.5:1
[10] = base DMEA, base:acid mole ratio 0.55:1, H2O:acid mass ratio 2.5:1
[11] = base Jeffamine D-230 (two moles acid per mole D-230), H2O:acid mass ratio 12:1
[12] = base MDEA, base:acid mole ratio 0.55:1, H2O:acid mass ratio 2.5:1
[13] = base TEA, base:acid mole ratio 0.60:1, H2O:acid mass ratio 2.5:1
[14] = substoichiometric aqueous NaOH, 0.6 to 0.7 equivalents of base

Q: With `CCCCCCCCC(CCCCCC)C(=O)O` (centres unmarked) [2-hexyldecanoic acid] as the molecule, how does the “Behaviour of the system” value (carboxylic acid:H2O mass ratio 1:12, carboxylic acid:NaOH mol ratio 1:1) read?
A: Its value is “Biphasic under air”.

Q: Which “Behaviour of the system” value (carboxylic acid:H2O mass ratio 1:2.5, carboxylic acid:NaOH mol ratio 1:0.5 and 1:0.6) does the source give for `CC(C(=O)O)c1ccccc1` (centres unmarked) [2-phenylpropionic acid] here?
A: The value was “Monophasic under”.

Q: Which “Behaviour of the system” value (carboxylic acid:H2O mass ratio 1:2.5, carboxylic acid:NaOH mol ratio 1:1) does the source give for `C=CCCCCCCCCC(=O)O` [10-undecenoic acid] here?
A: Its value is “Switchable”.

Q: For `CCCCCC(=O)O` [Hexanoic acid, hexanoic acid], which “Behaviour of the system” value (carboxylic acid:H2O mass ratio 2:1, carboxylic acid:NaOH mol ratio 1:0.6) is on record?
A: Its value is “Monophasic under”.

Q: For `CC(C)C(=O)O` [Isobutyric acid, isobutyric acid], which “Behaviour of the system” value (carboxylic acid:H2O mass ratio 1:2.5, carboxylic acid:NaOH mol ratio 1:0.6) is on record?
A: Its value is “Monophasic under”.

Q: Which “Behaviour of the system” value (carboxylic acid:H2O mass ratio 1:5, carboxylic acid:NaOH mol ratio 1:1) does the source give for `CCCCC/C=C\C/C=C\CCCCCCCC(=O)O` [Linoleic acid, linoleic acid] here?
A: The value was “Biphasic under air”.

Q: For `CCCCCCCCC(=O)O` [Nonanoic acid, nonanoic acid], which “Behaviour of the system” value (carboxylic acid:H2O mass ratio 1:2.5, carboxylic acid:NaOH mol ratio 1:0.7) is on record?
A: The value was “Switchable”.

Q: What does the source list for `CCCCCCCC(=O)O` [Octanoic acid, octanoic acid, reference compound]?
A: Behaviour of the system after CO2 addition (base 3DMAP, base:acid mole ratio 0.55:1, H2O:acid mass ratio 2.5:1, threshold 50 vol % recovered): Phase separation below 50; pH under 1 bar of CO2 [1]: 6.46; pH under air [1]: 6.34; Behaviour of the system after CO2 addition (base DMEA, base:acid mole ratio 0.60:1, H2O:acid mass ratio 2.5:1, threshold 50 vol % recovered): Phase separation below 50; pH under 1 bar of CO2 [2]: 6.71; pH under air [2]: 6.86; Behaviour of the system after CO2 addition [3]: No phase separation; pH under 1 bar of CO2 [3]: 6.85-7.60; pH under air [3]: 7.60-7.90; Behaviour of the system after CO2 addition [4]: Partial phase separation^b; pH under 1 bar of CO2 [5]: 6.70; pH under air [5]: 7.55; Phase behaviour upon addition of 1 bar of CO2 (MDEA): no phase separation was observed; Behaviour of the system after CO2 addition [6]: No phase separation; pH under 1 bar of CO2 [6]: 6.65; pH under air [6]: 6.69; Behaviour of the system (carboxylic acid:H2O mass ratio 1:1.5 and 1:2.5, carboxylic acid:NaOH mol ratio 1:0.9): Switchable; Behaviour of the system after CO2 addition [7]: No phase separation; pH under 1 bar of CO2 [7]: 6.70-6.90; pH under air [7]: 7.60-7.70; Behaviour of the system after CO2 addition [8]: No phase separation; pH under 1 bar of CO2 [8]: 6.75; pH under air [8]: 6.68

Q: Which “Behaviour of the system” value (carboxylic acid:H2O mass ratio 1:10, carboxylic acid:NaOH mol ratio 1:1) does the source give for `CCCCCCCC/C=C\CCCCCCCC(=O)O` [Oleic acid, oleic acid] here?
A: Its value is “Biphasic under air”.

Q: For `CCCC(CCC)C(=O)O` [PPA, 2-propylpentanoic acid], which “Behaviour of the system after CO2 addition” value (base 3DMAP, base:acid mole ratio 0.60:1, H2O:acid mass ratio 2.5:1, threshold 50 vol % recovered) is on record?
A: Its value is “Phase separation above 50”.

Q: And the “pH under 1 bar of CO2” value [9]?
A: Its value is 6.70.

Q: What about the pH under air [9] of the same molecule?
A: The pH under air was 6.63.

Q: And the “Behaviour of the system after CO2 addition” value (base DMEA, base:acid mole ratio 0.55:1, H2O:acid mass ratio 2.5:1, threshold 50 vol % recovered)?
A: Its value is “Phase separation above 50”.

Q: What about the “pH under 1 bar of CO2” value [10] of the same molecule?
A: Its value is 6.78.

Q: And the pH under air [10]?
A: The pH under air was 6.70.

Q: What about the “Behaviour of the system after CO2 addition” value (base Jeffamine D-230 (two moles acid per mole D-230), H2O:acid mass ratio 12:1, partial = acid recovered smaller than mass added) of the same molecule?
A: The value was “Partial phase separation”.

Q: And the “pH under 1 bar of CO2” value [11]?
A: The value was 6.84.

Q: And the pH under air [11]?
A: Its pH under air is 7.86.

Q: What about the “Behaviour of the system after CO2 addition” value [4] of the same molecule?
A: The value was “Partial phase separation”.

Q: And the “pH under 1 bar of CO2” value [5]?
A: The value was 6.73.

Q: What about the pH under air [5] of the same molecule?
A: Its pH under air is 8.43.

Q: And the “Phase behaviour upon addition of 1 bar of CO2” value (MDEA)?
A: Its value is “no phase separation was observed”.

Q: And the “Behaviour of the system after CO2 addition” value (base MDEA, base:acid mole ratio 0.55:1, H2O:acid mass ratio 2.5:1, threshold 50 vol % recovered)?
A: Its value is “Phase separation above 50”.

Q: What about the “pH under 1 bar of CO2” value [12] of the same molecule?
A: The value was 6.69.

Q: What about the pH under air [12] of the same molecule?
A: The pH under air was 6.59.

Q: What about the “Behaviour of the system” value (carboxylic acid:H2O mass ratio 1:2.5, carboxylic acid:NaOH mol ratio 1:0.8) of the same molecule?
A: The value was “Switchable”.

Q: And the “Behaviour of the system after CO2 addition” value [13]?
A: The value was “No phase separation”.

Q: What about the “pH under 1 bar of CO2” value [13] of the same molecule?
A: Its value is 6.72.

Q: And the pH under air [13]?
A: The pH under air was 6.51.

Q: And the “Phase behaviour upon addition of CO2” value [14]?
A: Its value is “phase separation was observed”.

Q: What about the Phases under air [14] of the same molecule?
A: The Phases under air was “one phase”.
